Data taken from patent US7601716B2, “Pyridopyrazines and derivatives thereof as ALK and c-Met inhibitors” (Cephalon, Inc., priority 2006, dated 2009).

These molecules were tested against baculovirus-expressed ALK (Homo sapiens, UniProt Q9UM73) (assay: ALK Kinase Assay (ELISA/TRF, PLC-γ substrate)). Conditions: read-out: ALK Kinase Inhibition (IC50).
Type: biochemical
Procedure: Example compounds were tested for their ability to inhibit the kinase activity of baculovirus-expressed ALK using a modification of the ELISA protocol reported for trkA in Angeles, T. S. et al., Anal. Biochem. 1996, 236, 49-55, which is incorporated herein by reference in its entirety. Phosphorylation of the substrate, phospholipase C-gamma (PLC-γ) generated as a fusion protein with glutathione S-transferase (GST) as reported in Rotin, D. et al., EMBO J. 1992, 11, 559-567, which is incorporated herein by reference in its entirety, was detected with a europium-labeled anti-phosphotyrosine antibody and measured by time-resolved fluorescence (TRF). Briefly, each 96-well plate was coated with 100 μL/well of 10 μg/mL substrate (phospholipase C-γ) in Tris-buffered saline (TBS). […] The reaction was initiated by adding enzyme (30 ng/ml ALK) and was allowed to proceed at 37° C. for 15 minutes. Detection of the phosphorylated product was performed by adding 100 μl/well of Eu-N1 labeled PT66 antibody (Perkin Elmer # AD0041). Incubation at 37° C. then proceeded for one (1) hour, followed by addition of 100 μL enhancement solution (Wallac #1244-105). The plate was gently agitated and after thirty minutes, the fluorescence of the resulting solution was measured using the EnVision 2100 (or 2102) multilabel plate reader (Perkin Elmer).
Data analysis was performed using ActivityBase (IDBS, Guilford, UK). IC50 values were calculated by plotting percent inhibition versus log10 of the concentration of compound and fitting to the nonlinear regression sigmoidal dose-response (variable slope) equation in XLFit (IDBS, Guilford, UK).
Note: 1 µM ATP (Km level).

baculovirus-expressed ALK, sequence (Q9UM73 19-1620): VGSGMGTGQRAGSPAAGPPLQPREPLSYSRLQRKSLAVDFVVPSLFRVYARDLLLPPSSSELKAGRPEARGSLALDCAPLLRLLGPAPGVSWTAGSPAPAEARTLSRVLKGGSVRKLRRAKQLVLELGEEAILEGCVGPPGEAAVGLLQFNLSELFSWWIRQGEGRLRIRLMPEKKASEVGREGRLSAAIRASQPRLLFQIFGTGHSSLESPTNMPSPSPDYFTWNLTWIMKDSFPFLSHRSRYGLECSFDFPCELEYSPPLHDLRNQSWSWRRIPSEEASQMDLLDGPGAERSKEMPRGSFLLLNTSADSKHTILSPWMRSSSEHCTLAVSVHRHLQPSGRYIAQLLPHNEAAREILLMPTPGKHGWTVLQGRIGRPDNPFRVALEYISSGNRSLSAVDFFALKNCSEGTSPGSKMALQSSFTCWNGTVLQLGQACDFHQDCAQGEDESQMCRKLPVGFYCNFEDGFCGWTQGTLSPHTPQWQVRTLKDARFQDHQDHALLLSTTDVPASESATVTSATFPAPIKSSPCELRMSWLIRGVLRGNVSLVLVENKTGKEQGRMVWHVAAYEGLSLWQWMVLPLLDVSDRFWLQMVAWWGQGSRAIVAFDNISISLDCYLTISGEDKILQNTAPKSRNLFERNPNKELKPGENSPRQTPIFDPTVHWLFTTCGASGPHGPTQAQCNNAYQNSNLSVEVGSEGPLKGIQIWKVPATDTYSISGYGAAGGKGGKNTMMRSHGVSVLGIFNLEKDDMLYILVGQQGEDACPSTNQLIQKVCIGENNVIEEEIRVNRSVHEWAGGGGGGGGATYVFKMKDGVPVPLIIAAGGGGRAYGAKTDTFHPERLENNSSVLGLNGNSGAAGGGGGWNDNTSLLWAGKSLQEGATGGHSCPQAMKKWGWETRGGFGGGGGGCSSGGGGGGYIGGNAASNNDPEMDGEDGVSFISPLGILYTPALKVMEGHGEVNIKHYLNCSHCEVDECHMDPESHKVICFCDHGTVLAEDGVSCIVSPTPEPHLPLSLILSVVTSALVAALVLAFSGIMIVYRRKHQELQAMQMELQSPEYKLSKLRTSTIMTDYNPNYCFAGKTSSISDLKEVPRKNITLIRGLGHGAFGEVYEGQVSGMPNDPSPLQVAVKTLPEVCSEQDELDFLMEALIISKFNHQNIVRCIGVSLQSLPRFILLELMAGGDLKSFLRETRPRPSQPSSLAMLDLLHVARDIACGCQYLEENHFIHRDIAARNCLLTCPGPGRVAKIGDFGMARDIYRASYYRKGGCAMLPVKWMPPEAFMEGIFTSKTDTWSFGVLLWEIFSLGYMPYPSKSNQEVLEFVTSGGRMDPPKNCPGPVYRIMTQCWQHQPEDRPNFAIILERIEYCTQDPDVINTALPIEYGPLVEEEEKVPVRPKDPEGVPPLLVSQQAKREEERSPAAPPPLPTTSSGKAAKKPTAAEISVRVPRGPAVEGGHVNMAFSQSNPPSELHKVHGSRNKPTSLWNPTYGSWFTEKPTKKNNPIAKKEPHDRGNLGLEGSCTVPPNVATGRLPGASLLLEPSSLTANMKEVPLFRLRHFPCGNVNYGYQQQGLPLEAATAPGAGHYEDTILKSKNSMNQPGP

IC50 [µM]	Structure (SMILES)
0.1 to 1	COc1ccc(N2CCN(C(=O)c3ccc(-c4cnc5c(c4)N(Cc4cc(Cl)ccc4C(F)(F)F)CCN5)cc3)CC2)cc1 [Example 411, (4-{1-[5-Chloro-2-(trifluoromethyl)benzyl]-1,2,3,4-tetrahydropyrido[2,3-b]pyrazin-7-yl}phenyl)-[4-(4-methoxyphenyl)piperazin-1-yl]methanone]
0.1 to 1	O=C(c1ccc(-c2cnc3c(c2)N(Cc2cc(Cl)ccc2C(F)(F)F)CCN3)cc1)N1CCN(c2ncnc3ccsc23)CC1 [Example 382, (4-{1-[5-Chloro-2-(trifluoromethyl)benzyl]-1,2,3,4-tetrahydropyrido[2,3-b]pyrazin-7-yl}phenyl)-(4-thieno[3,2-d]pyrimidin-4-yl-piperazin-1-yl)methanone]
0.1 to 1	O=C(c1ccc(-c2cnc3c(c2)N(Cc2cc(Cl)ccc2C(F)(F)F)CCN3)cc1)N1CCC(O)(c2ccc(Cl)cc2)CC1 [Example 371, [4-(4-Chlorophenyl)-4-hydroxypiperidin-1-yl]-(4-{1-[5-chloro-2-(trifluoromethyl)benzyl]-1,2,3,4-tetrahydropyrido[2,3-b]pyrazin-7-yl}phenyl)methanone]
0.1 to 1	O=C(c1cccc(-c2cnc3c(c2)N(Cc2cc(Cl)ccc2C(F)(F)F)CCN3)c1)N1CCC(n2c(=O)[nH]c3ccccc32)CC1 [Example 310, 1-[1-(3-{1-[5-Chloro-2-(trifluoromethyl)benzyl]-1,2,3,4-tetrahydropyrido[2,3-b]pyrazin-7-yl}benzoyl)piperidin-4-yl]-1,3-dihydrobenzoimidazol-2-one]
1 to 10	O=C(c1cccc(-c2cnc3c(c2)N(Cc2cc(Cl)ccc2C(F)(F)F)CCN3)c1)N1CCN(C(c2ccccc2)c2ccccc2)CC1 [Example 315, (4-Benzhydrylpiperazin-1-yl)-(3-{1-[5-Chloro-2-(trifluoromethyl)benzyl]-1,2,3,4-tetrahydropyrido[2,3-b]pyrazin-7-yl}phenyl)methanone]
0.1 to 1	O=C(NCc1ccccc1Cl)c1cccc(-c2cnc3c(c2)N(Cc2cc(Cl)ccc2C(F)(F)F)CCN3)c1 [Example 348, N-(2-Chlorobenzyl)-3-{1-[5-Chloro-2-(trifluoromethyl)benzyl]-1,2,3,4-tetrahydropyrido[2,3-b]pyrazin-7-yl}benzamide]
0.1 to 1	O=C(NC1CCc2ccccc21)c1cccc(-c2cnc3c(c2)N(Cc2cc(Cl)ccc2C(F)(F)F)CCN3)c1 (stereo not shown) [Example 343, 3-{1-[5-Chloro-2-(trifluoromethyl)benzyl]-1,2,3,4-tetrahydropyrido[2,3-b]pyrazin-7-yl}-N-indan-1-ylbenzamide]
0.1 to 1	O=C(c1ccc(-c2cnc3c(c2)N(Cc2cc(Cl)ccc2C(F)(F)F)CCN3)cc1)N1CCC(c2c[nH]c3ccccc23)CC1 [Example 376, (4-{1-[5-Chloro-2-(trifluoromethyl)benzyl]-1,2,3,4-tetrahydropyrido[2,3-b]pyrazin-7-yl}phenyl)-[4-(1H-indol-3-yl)piperidin-1-yl]methanone]
1 to 10	O=C(NCc1cccc2ccccc12)c1ccc(-c2cnc3c(c2)N(Cc2cc(Cl)ccc2C(F)(F)F)CCN3)cc1 [Example 409, 4-{1-[5-Chloro-2-(trifluoromethyl)benzyl]-1,2,3,4-tetrahydropyrido[2,3-b]pyrazin-7-yl}-N-naphthalen-1-ylmethylbenzamide]
0.1 to 1	CC(C)NC(=O)CN1CCN(C(=O)c2cccc(-c3cnc4c(c3)N(Cc3cc(Cl)ccc3C(F)(F)F)CCN4)c2)CC1 [Example 336, 2-[4-(3-{1-[5-Chloro-2-(trifluoromethyl)benzyl]-1,2,3,4-tetrahydropyrido[2,3-b]pyrazin-7-yl}benzoyl)piperazin-1-yl]-N-isopropylacetamide]
0.1 to 1	COc1ccccc1CN(C)C(=O)c1cccc(-c2cnc3c(c2)N(Cc2cc(Cl)ccc2C(F)(F)F)CCN3)c1 [Example 367, 3-{1-[5-Chloro-2-(trifluoromethyl)benzyl]-1,2,3,4-tetrahydropyrido[2,3-b]pyrazin-7-yl}-N-(2-methoxybenzyl)-N-methylbenzamide]
0.1 to 1	O=C(c1cccc(-c2cnc3c(c2)N(Cc2cc(Cl)ccc2C(F)(F)F)CCN3)c1)N1CCC(Cc2ccccc2)CC1 [Example 316, (4-Benzylpiperidin-1-yl)-(3-{1-[5-Chloro-2-(trifluoromethyl)benzyl]-1,2,3,4-tetrahydropyrido[2,3-b]pyrazin-7-yl}phenyl)methanone]
0.1 to 1	O=C(c1ccc(-c2cnc3c(c2)N(Cc2cc(Cl)ccc2C(F)(F)F)CCN3)cc1)N1CCN(c2cccc(C(F)(F)F)c2)CC1 [Example 374, (4-{1-[5-Chloro-2-(trifluoromethyl)benzyl]-1,2,3,4-tetrahydropyrido[2,3-b]pyrazin-7-yl}phenyl)-{4-[3-(trifluoromethyl)phenyl]piperazin-1-yl}methanone]
0.1 to 1	O=C(c1ccc(-c2cnc3c(c2)N(Cc2cc(Cl)ccc2C(F)(F)F)CCN3)cc1)N1CCN(c2ccccc2)CC1 [Example 368, (4-{1-[5-Chloro-2-(trifluoromethyl)benzyl]-1,2,3,4-tetrahydropyrido[2,3-b]pyrazin-7-yl}phenyl)-(4-phenylpiperazin-1-yl)methanone]
0.1 to 1	O=C(NCCc1ccccc1)c1ccc(-c2cnc3c(c2)N(Cc2cc(Cl)ccc2C(F)(F)F)CCN3)cc1 [Example 416, 4-{1-[5-Chloro-2-(trifluoromethyl)benzyl]-1,2,3,4-tetrahydropyrido[2,3-b]pyrazin-7-yl}-N-phenethylbenzamide]
0.1 to 1	O=C(c1ccc(-c2cnc3c(c2)N(Cc2cc(Cl)ccc2C(F)(F)F)CCN3)cc1)N1CCN(c2nccc3occc23)CC1 [Example 386, (4-{1-[5-Chloro-2-(trifluoromethyl)benzyl]-1,2,3,4-tetrahydropyrido[2,3-b]pyrazin-7-yl}phenyl)-(4-furo[3,2-c]pyridin-4-ylpiperazin-1-yl)methanone]
0.1 to 1	O=C(c1ccc(-c2cnc3c(c2)N(Cc2cc(Cl)ccc2C(F)(F)F)CCN3)cc1)N1CCN(c2ccccc2C(F)(F)F)CC1 [Example 381, (4-{1-[5-Chloro-2-(trifluoromethyl)benzyl]-1,2,3,4-tetrahydropyrido[2,3-b]pyrazin-7-yl}phenyl)-{4-[2-(trifluoromethyl)phenyl]piperazin-1-yl}methanone]
< 0.1	O=C(NCc1ccncc1)c1cccc(-c2cnc3c(c2)N(Cc2cc(Cl)ccc2C(F)(F)F)CCN3)c1 [Example 334, 3-{1-[5-Chloro-2-(trifluoromethyl)benzyl]-1,2,3,4-tetrahydropyrido[2,3-b]pyrazin-7-yl}-N-pyridin-4-ylmethylbenzamide]
1 to 10	O=C(NCc1ccc(OC(F)(F)F)cc1)c1cccc(-c2cnc3c(c2)N(Cc2cc(Cl)ccc2C(F)(F)F)CCN3)c1 [Example 331, 3-{1-[5-Chloro-2-(trifluoromethyl)benzyl]-1,2,3,4-tetrahydropyrido[2,3-b]pyrazin-7-yl}-N-[4-(trifluoromethoxy)benzyl]benzamide]
0.1 to 1	O=C(c1cccc(-c2cnc3c(c2)N(Cc2cc(Cl)ccc2C(F)(F)F)CCN3)c1)N1CCN(Cc2ccc(Cl)cc2)CC1 [Example 321, [4-(4-Chlorobenzyl)piperazin-1-yl]-(3-{1-[5-Chloro-2-(trifluoromethyl)benzyl]-1,2,3,4-tetrahydropyrido[2,3-b]pyrazin-7-yl}phenyl)methanone]
0.1 to 1	O=C(NCc1csc(-c2ccccc2)n1)c1ccc(-c2cnc3c(c2)N(Cc2cc(Cl)ccc2C(F)(F)F)CCN3)cc1 [Example 407, 4-{1-[5-Chloro-2-(trifluoromethyl)benzyl]-1,2,3,4-tetrahydropyrido[2,3-b]pyrazin-7-yl}-N-(2-phenylthiazol-4-ylmethyl)benzamide]
0.1 to 1	O=C(NCCc1ccccn1)c1ccc(-c2cnc3c(c2)N(Cc2cc(Cl)ccc2C(F)(F)F)CCN3)cc1 [Example 388, 4-{1-[5-Chloro-2-(trifluoromethyl)benzyl]-1,2,3,4-tetrahydropyrido[2,3-b]pyrazin-7-yl}-N-(2-pyridin-2-yl-ethyl)benzamide]
0.1 to 1	COc1ccc(CN2CCN(C(=O)c3cccc(-c4cnc5c(c4)N(Cc4cc(Cl)ccc4C(F)(F)F)CCN5)c3)CC2)cc1 [Example 322, (3-{1-[5-Chloro-2-(trifluoromethyl)benzyl]-1,2,3,4-tetrahydropyrido[2,3-b]pyrazin-7-yl}phenyl)-[4-(4-methoxybenzyl)piperazin-1-yl]methanone]
< 0.1	O=C(c1cccc(-c2cnc3c(c2)N(Cc2cc(Cl)ccc2C(F)(F)F)CCN3)c1)N1CCC[C@H]1CN1CCCC1 [Example 365, (3-{1-[5-Chloro-2-(trifluoromethyl)benzyl]-1,2,3,4-tetrahydropyrido[2,3-b]pyrazin-7-yl}phenyl)-((S)-2-pyrrolidin-1-ylmethylpyrrolidin-1-yl)methanone]
1 to 10	O=C(NC(c1ccccc1)c1ccccc1)c1ccc(-c2cnc3c(c2)N(Cc2cc(Cl)ccc2C(F)(F)F)CCN3)cc1 [Example 399, N-Benzhydryl-4-{1-[5-chloro-2-(trifluoromethyl)benzyl]-1,2,3,4-tetrahydropyrido[2,3-b]pyrazin-7-yl}benzamide]
